# Measurements published in US8093035B2, “Pseudomonas sp. strain and method of producing chitinase, chitosanase and nattokinase using the same” (Tamkang University, priority 2008, dated 2012).
# Where “and” joins values, the source holds several entries; their conditions need not be identical. Equal entries are not always repeated. Entries after “also recorded” stand apart in the source; their conditions may differ. Where two headings read alike, the source gives them in different places.
# Experiments:
# [1] = tested on: TKU015 nattokinase; type: biochemical, Pseudomonas sp. TKU015; conditions: for Effect on TKU015 nattokinase activity: metal ion or inhibitor added
# [2] = tested on: nattokinase; conditions: ion added; cited from earlier work
# [3] = tested on: chitosanase; type: biochemical, Pseudomonas sp. TKU015
# Description: (§1) In order to produce chitinase and chitosanase, generally, TKU015 is cultured in a liquid shaking culture medium (pH 8) including 0.5% by weight of SSP, 0.1% by weight of K2HPO4 and 0.05% by weight of MgSO4.7H2O for 3 days at 30° C. The obtained fermented supernatant is purified with ammonia sulfate precipitation, DEAE-Sepharose chromatography, Phenyl-Sepharose chromatography, and Sephacryl S-100 chromatography in sequence, and a chitinase and a chitosanase is obtained.
# (§2) Pseudomonas sp. TKU015 is cultured in a liquid medium (100 mL/250 mL), which employ shrimp shell powder as carbon/nitrogen source, for 2-3 days at 30° C., and chitinase, chitosanase and nattokinase activity are tested in the medium.
# [4] = tested on: TKU015 nattokinase; assay: Influence of organic solvents on activity of TKU015 nattokinase; type: biochemical, Pseudomonas sp. TKU015; conditions: in the presence of organic solvent; for Relative activity(%) TKU015 nattokinase: 100% represents 20 FU/mL
# Description: Protease activity of the supernatant obtained from culture medium of chitinase (cultured in a liquid shaking culture medium (pH 8) including 0.5% by weight of SSP, 0.1% by weight of K2HPO4 and 0.05% by weight of MgSO4.7H2O for 3 days at 30° C.) is respectively tested using casein and N-succinyl-Ala-Ala-Pro-Phe-pNa as substrate.
# (§3) With respect to thermal stability, TKU015 nattokinase is mixed with different solvents and then respectively placed for ten days at 25° C. and 4° C.
# [5] = tested on: TKU015 nattokinase; assay: Influence of organic solvents on TKU015 nattokinase activity at different temperature (ten days); type: biochemical, Pseudomonas sp. TKU015; conditions: mixed with solvent, 100% represents 15 FU/mL
# Description: as §3
# [6] = tested on: chitinase; assay: Influence of metal ions and organic solvents on TKU015 chitinase activity; type: biochemical, Pseudomonas sp. TKU015
# Description: as §1, §2
# [7] = target: Pseudomonas aeruginosa PseA protease (Pseudomonas aeruginosa, UniProt P14756); conditions: cited from earlier work; for Effect of solvent on PseA protease activity: in the presence of solvent
# Sequence of Pseudomonas aeruginosa PseA protease (P14756 198-498): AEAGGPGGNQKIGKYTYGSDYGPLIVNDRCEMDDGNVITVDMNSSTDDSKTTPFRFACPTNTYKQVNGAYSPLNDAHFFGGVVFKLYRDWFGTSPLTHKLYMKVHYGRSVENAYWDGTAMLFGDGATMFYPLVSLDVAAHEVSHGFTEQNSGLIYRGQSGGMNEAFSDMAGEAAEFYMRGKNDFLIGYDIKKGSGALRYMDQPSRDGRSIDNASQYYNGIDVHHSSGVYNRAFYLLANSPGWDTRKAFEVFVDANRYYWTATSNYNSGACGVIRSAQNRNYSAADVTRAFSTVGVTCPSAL
# [8] = target: PST-01 protease (Pseudomonas aeruginosa, UniProt P14756); conditions: in the presence of solvent; cited from earlier work
# Sequence of PST-01 protease (P14756 198-498): as above
# [9] = tested on: san-ai protease; conditions: in the presence of solvent; cited from earlier work
# [10] = tested on: TKU015 nattokinase; assay: Influence of surfactants on TKU015 nattokinase activity; type: biochemical, Pseudomonas sp. TKU015; conditions: for Relative activity (%) Nattokinase: 100% represents 18 FU/mL
# [11] = concentration 5 mM, 100% represents 19 FU/mL
# [12] = after placed for 10 days at 25° C.
# [13] = concentration 10 mM, 100% represents 19 FU/mL
# [14] = after placed for 10 days, temperature not given
# [15] = after placed for 10 days at 4° C.
compound,measurement,setting,value
[Al+3] [Al^3+],Relative activity (%) Nattokinase,[1]; [11],101%
[Ba+2] [Ba^2+],Relative activity (%) Nattokinase,[1]; [11],109%
[Ca+2] [Ca^2+],Relative activity (%) Nattokinase,[1]; [11],108%
same,Effect on TKU015 nattokinase activity,[1],does not
same,Effect of metal ion on nattokinase activity,[2],increased activity
[Cu+2] [Cu^2+],Relative activity (%) Nattokinase,[1]; [11],95%
same,Effect on TKU015 nattokinase activity,[1],does not
same,Effect of metal ions and PMSF on chitosanase activity,[3],inhibited
same,Effect of metal ion on nattokinase activity,[2],increased activity
"CN(C)C=O [DMF, N,N-dimethylformamide]",Relative activity(%) TKU015 nattokinase,[4],80% and 64%
same,Relative activity(%) TKU015 nattokinase,[5]; placed ten days at 4 ° C.,120%
same,Relative activity(%) TKU015 nattokinase,[5]; placed ten days at 25 ° C.,98%
same,Organic solvent resistance of chitinase,[6]; [12],don't affect activity
same,Organic solvent resistance of chitosanase,[3]; [12],don't affect activity
same,Effect of solvent on PseA protease activity,[7],doesn't change
same,Effect of solvent on PST-01 protease activity,[8],doesn't change
same,Effect of solvent on san-ai protease activity,[9],doesn't change
C[S+](C)[O-] [DMSO],Relative activity(%) TKU015 nattokinase,[4],80%
same,Relative activity(%) TKU015 nattokinase,[5]; placed ten days at 4 ° C.,90%
same,Relative activity(%) TKU015 nattokinase,[5]; placed ten days at 25 ° C.,94%
O=C(O)CN(CCN(CC(=O)O)CC(=O)O)CC(=O)O [EDTA],Relative activity (%) Nattokinase,[1],117%
[Fe+2] [Fe^2+],Relative activity (%) Nattokinase,[1]; [11],232%
same,Relative activity (%) Nattokinase,[1]; [13],156%
same,Effect on TKU015 nattokinase activity,[1],improve activity; also recorded: increase its activity
same,Effect of metal ions on chitinase activity,[6],inhibited; also recorded: prohibited
[Mg+2] [Mg^2+],Relative activity (%) Nattokinase,[1]; [11],104%
same,Effect on TKU015 nattokinase activity,[1],does not
same,Effect of metal ion on nattokinase activity,[2],increased activity
[Mn+2] [Mn^2+],Relative activity (%) Nattokinase,[1]; [11],102%
same,Effect of metal ions on chitinase activity,[6],inhibited; also recorded: prohibited
same,Effect of metal ions and PMSF on chitosanase activity,[3],inhibited
"O=S(=O)(F)Cc1ccccc1 [PMSF, phenylmethanesulfonyl fluoride]",Relative activity (%) Nattokinase,[1]; [11],45%
same,Relative activity (%) Nattokinase,[1]; [13],0%
same,Effect on TKU015 nattokinase activity,[1],completely inhibited
same,Effect of metal ions and PMSF on chitosanase activity,[3],inhibited
CCCCCCCCCCCCOS(=O)(=O)[O-].[Na+] [SDS],TKU015 nattokinase remaining activity,"[10]; concentration 0.5, 1, or 2 mM (one value in text)",50%
same,Relative activity (%) Nattokinase,[10]; surfactant 0.5 mM,66%
same,Relative activity (%) Nattokinase,[10]; surfactant 1 mM,56%
same,Relative activity (%) Nattokinase,[10]; surfactant 2 mM,56%
same,Remaining activity of PseA protease,[7]; concentration 0.1%,61%
[Zn+2] [Zn^2+],Relative activity (%) Nattokinase,[1]; [11],94%
CC(C)=O [acetone],Relative activity(%) TKU015 nattokinase,[4],150%
same,Relative activity(%) TKU015 nattokinase,[5]; placed ten days at 4 ° C.,128%
same,Relative activity(%) TKU015 nattokinase,[5]; placed ten days at 25 ° C.,108%
same,Organic solvent resistance of chitinase,[6]; [14],can affect activity
same,Organic solvent resistance of chitosanase,[3]; [15],can affect activity
same,Activity of PST-01 protease,[8],200%
same,Effect of solvent on PST-01 protease activity,[8],doesn't change
CC#N [acetonitrile],Relative activity(%) TKU015 nattokinase,[4],88%
same,Relative activity(%) TKU015 nattokinase,[5]; placed ten days at 4 ° C.,90%
same,Relative activity(%) TKU015 nattokinase,[5]; placed ten days at 25 ° C.,80%
same,Organic solvent resistance of chitinase,[6]; [14],can affect activity
same,Effect of organic solvent on chitosanase activity,[3],can affect activity
CCO [ethanol],Relative activity(%) TKU015 nattokinase,[4],65%
same,Relative activity(%) TKU015 nattokinase,[5]; placed ten days at 4 ° C.,114%
same,Relative activity(%) TKU015 nattokinase,[5]; placed ten days at 25 ° C.,88%
CCOC(C)=O [ethyl acetate],Relative activity(%) TKU015 nattokinase,[4],70%
same,Relative activity(%) TKU015 nattokinase,[5]; placed ten days at 4 ° C.,118%
same,Relative activity(%) TKU015 nattokinase,[5]; placed ten days at 25 ° C.,92%
CCOCC [ethyl ether],Inhibition of TKU015 nattokinase activity,[4],50%
same,Relative activity(%) TKU015 nattokinase,[4],43%
same,Relative activity(%) TKU015 nattokinase,[5]; placed ten days at 4 ° C.,98%
same,Relative activity(%) TKU015 nattokinase,[5]; placed ten days at 25 ° C.,70%
same,Organic solvent resistance of chitinase,[6]; [14],can affect activity
same,Organic solvent resistance of chitosanase,[3]; [15],can affect activity
CCCCCC [hexane],Relative activity(%) TKU015 nattokinase,[4],66%
CC(C)CCO [isoamylalcohol],Relative activity(%) TKU015 nattokinase,[4],60%
same,Relative activity(%) TKU015 nattokinase,[5]; placed ten days at 4 ° C.,88%
same,Relative activity(%) TKU015 nattokinase,[5]; placed ten days at 25 ° C.,100%
CC(C)O [isopropylalcohol],Relative activity(%) TKU015 nattokinase,[4],68%
same,Relative activity(%) TKU015 nattokinase,[5]; placed ten days at 4 ° C.,115%
same,Relative activity(%) TKU015 nattokinase,[5]; placed ten days at 25 ° C.,120%
CO [methanol],Effect of organic solvent on TKU015 nattokinase activity,[4],do not affect
same,Relative activity(%) TKU015 nattokinase,[4],96%
same,Relative activity(%) TKU015 nattokinase,[5]; placed ten days at 4 ° C.,116%
same,Relative activity(%) TKU015 nattokinase,[5]; placed ten days at 25 ° C.,90%
Cc1ccccc1 [toluene],Effect of organic solvent on TKU015 nattokinase activity,[4],do not affect
same,Relative activity(%) TKU015 nattokinase,[4],106%
same,Relative activity(%) TKU015 nattokinase,[5]; placed ten days at 4 ° C.,120%
same,Relative activity(%) TKU015 nattokinase,[5]; placed ten days at 25 ° C.,100%
same,Organic solvent resistance of chitinase,[6]; [12],don't affect activity
same,Organic solvent resistance of chitosanase,[3]; [12],don't affect activity
same,Effect of solvent on PseA protease activity,[7],doesn't change
same,Effect of solvent on PST-01 protease activity,[8],doesn't change
Triton X-100,Relative activity (%) Nattokinase,[10]; surfactant 0.5 % (v/v),160%
same,Relative activity (%) Nattokinase,[10]; surfactant 1 % (v/v),206%
same,Relative activity (%) Nattokinase,[10]; surfactant 2 % (v/v),344%
same,Effect on PseA protease activity,[7]; concentration 0.1% or 0.5%,doesn't change
Tween 40,Relative activity (%) Nattokinase,[10]; surfactant 0.5 % (v/v),94%
same,Relative activity (%) Nattokinase,[10]; surfactant 1 % (v/v),70%
same,Relative activity (%) Nattokinase,[10]; surfactant 2 % (v/v),82%
butanol,Relative activity(%) TKU015 nattokinase,[4],70%
same,Relative activity(%) TKU015 nattokinase,[5]; placed ten days at 4 ° C.,125%
same,Relative activity(%) TKU015 nattokinase,[5]; placed ten days at 25 ° C.,85%
xylene,Effect of organic solvent on TKU015 nattokinase activity,[4],do not affect
same,Relative activity(%) TKU015 nattokinase,[4],96%
same,Relative activity(%) TKU015 nattokinase,[5]; placed ten days at 4 ° C.,126%
same,Relative activity(%) TKU015 nattokinase,[5]; placed ten days at 25 ° C.,96%
same,Organic solvent resistance of chitinase,[6]; [12],don't affect activity
same,Organic solvent resistance of chitosanase,[3]; [12],don't affect activity
